Tests used:
Type in all cases: cell-based
A459 human lung = assay: IC50 against A459 human lung cells
P388 leukemia = assay: IC50 against P388 leukemia cells; conditions: Mus musculus
MEL28 melanoma = assay: IC50 against MEL28 melanoma cells; conditions: Homo sapiens, SK-MEL-28
HT29 human colon = assay: IC50 against HT29 human colon cells; conditions: HT-29

Measured: IC50

CCCCCCCCCCCCCC[C@@H]1OC[C@H](N)[C@@H]1O [IK-8-73-4]
0.01 µg/mL: A459 human lung | P388 leukemia | MEL28 melanoma | HT29 human colon

Reference: patent US6864283B2, “Oxy-and amino-substituted tetrahydrofuryl derivatives with antitumour activity” (Pharma Mar, S.A., priority 2000, dated 2005)
